# According to article PMC6213900, “Design, Synthesis, and Cytotoxic Analysis of Novel Hederagenin–Pyrazine Derivatives Based on Partial Least Squares Discriminant Analysis” (International Journal of Molecular Sciences, 2018):
# Read-outs that look alike come from different tables or passages of the source.
# Key:
# [1] = tested on: HepG2 (human hepatocellular carcinoma); assay: MTT cytotoxicity assay, HepG2; format: cell-based; settings: MTT, 72 h treatment, read-out: Half Maximal Inhibitory Concentration (IC50) HepG2
# Description: (§1) The cytotoxicity of hederagenin derivatives in vitro was evaluated on three tumor cell lines (A549: human non-small-cell lung cancer; MCF-7: human mammary cancer; HepG2: human hepatocellular carcinoma) using the 3-(4,5-dimethylthiazol-2-yl)-2,5-diphenyltetrazolium bromide (MTT) assay. In addition, their toxicity evaluations were tested on H9c2 (murine heart myoblast) and MDCK (Madin–Darby canine kidney) cells. MCF-7, A549, HepG2, H9c2, and MDCK cells were obtained from the Chinese Academy of Medical Sciences and Peking Union Medical College. All of the cell lines were maintained in Dulbecco’s modified Eagle medium (DMEM) supplemented with 1% (v/v) penicillin/streptomycin and 10% (v/v) fetal bovine serum (FBS; Thermo Technologies, New York, NY, USA) under a humidified atmosphere containing 5% CO2 at 37 °C. The stock solutions of He derivatives were dissolved in dimethyl sulfoxide (DMSO; Sigma, St. Louis, MO, USA) and added at various concentrations to the cell culture. Cellular morphologies were observed using an inverted fluorescence microscope (Olympus IX71, Tokyo, Japan), a plate reader (BIORAD 550 spectrophotometer, Bio-rad Life Science Development Ltd., Beijing, China), and a Canton 2 flow cytometer (BD, New York, NY, USA). The antitumor activity of these compounds were evaluated on MCF-7, A549, HepG2, MDCK, and H9c2 cell lines using the MTT assay. Cells at a density of 3 × 10^3 cells/well were plated in a 96-multiwell plate in DMEM containing 10% FBS for 24 h at 37 °C with 5% CO2. Then, cells were treated for 72 h with the required concentrations (3.125, 6.25, 12.5, 25, or 50 μM) of the compounds and reference drugs (He and DDP) dissolved with the vehicle DMSO. After that, the culture substrate was replaced with 200 μL of DMEM containing 20 μL of MTT solution at 5 mg/mL and incubated for 4 h. The supernatant was removed and the dissolved formazans precipitated with 120 μL of DMSO. Wells without drugs were used as blanks. A plate reader was used to determine the absorbance at 490 nm. The above steps were repeated three times. The IC50 values were defined as the concentration of the compound which gave 50% growth inhibition, and they were calculated using Graph Pad Prism 5. The inhibition rate was calculated using the following formula, where OD is the optical density:% inhibition = 1 − (Sample group OD/Control group OD) × 100%. (1)
# [2] = tested on: H9c2 (murine heart myoblast); assay: MTT toxicity evaluation, H9c2; format: cell-based; settings: non-tumor cells, read-out: Half Maximal Inhibitory Concentration (IC50) H9c2
# Description: as §1
# [3] = tested on: MDCK (Madin–Darby canine kidney) cells; assay: MTT toxicity evaluation, MDCK; format: cell-based; settings: 72 h treatment, non-tumor cells, read-out: Half Maximal Inhibitory Concentration (IC50) MDCK
# Description: as §1
# [4] = tested on: MCF-7 (human mammary cancer); assay: MTT cytotoxicity assay, MCF-7; format: cell-based; settings: read-out: Half Maximal Inhibitory Concentration (IC50) MCF-7
# Description: as §1
# [5] = tested on: A549 (human non-small-cell lung cancer); assay: MTT cytotoxicity assay, A549; format: cell-based; settings: read-out: Half Maximal Inhibitory Concentration (IC50) A549
# Description: as §1
# [6] = Homo sapiens, MCF7, 72 h treatment
# [7] = Homo sapiens, A549, 72 h treatment
SMILES,"IC50 ([1]; Homo sapiens, HepG2)","IC50 ([2]; H9c2, 72 h treatment)","IC50 ([3]; Canis lupus familiaris, MDCK)",melting point,"IC50 [4, 6]","IC50 [5, 7]",IC50 [1],IC50 ([2]; 72 h treatment),IC50 [3],IC50 ([4]; 72 h treatment),IC50 ([5]; 72 h treatment)
"CC1(C)CC[C@]2(C(=O)OCc3cnccn3)CC[C@]3(C)C(=CCC4[C@@]5(C)CC[C@H](O)[C@@](C)(CO)C5CC[C@]43C)C2C1 (stereo partly drawn) [Compound 1, Pyrazin-2-ylmethyl(4aS,6aS,6bR,9R,10S,12aR)-10-hydroxy-9-(hydroxymethyl)-2,2,6a,6b,9,12a-hexamethyl-1,3,4,5,6,6a,6b,7,8,8a,9,10,11,12,12a,12b,13,14b-octadecahydropicene-4a(2H)-carboxylate]",18.79 ± 0.04 µM,14.7 ± 0.51 µM,18.1 ± 0.25 µM,146.8 °C,16.05 ± 0.01 µM,17.6 ± 0.37 µM,,,,,
"Cc1cncc(COC(=O)[C@]23CCC(C)(C)CC2C2=CCC4[C@@]5(C)CC[C@H](O)[C@@](C)(CO)C5CC[C@@]4(C)[C@]2(C)CC3)n1 (stereo partly drawn) [Compound 2, (6-Methylpyrazin-2-yl)methyl(4aS,6aS,6bR,9R,10S,12aR)-10-hydroxy-9-(hydroxymethyl)-2,2,6a,6b,9,12a-hexamethyl-1,3,4,5,6,6a,6b,7,8,8a,9,10,11,12,12a,12b,13,14b-octadecahydropicene-4a(2H)-carboxylate]",27.2 ± 1.82 µM,25.1 ± 0.43 µM,26.7 ± 1.64 µM,107 °C,15.8 ± 0.22 µM,20.6 ± 0.29 µM,,,,,
"Cc1cnc(COC(=O)[C@]23CCC(C)(C)CC2C2=CCC4[C@@]5(C)CC[C@H](O)[C@@](C)(CO)C5CC[C@@]4(C)[C@]2(C)CC3)cn1 (stereo partly drawn) [Compound 3, (5-Methylpyrazin-2-yl)methyl(4aS,6aS,6bR,9R,10S,12aR)-10-hydroxy-9-(hydroxymethyl)-2,2,6a,6b,9,12a-hexamethyl-1,3,4,5,6,6a,6b,7,8,8a,9,10,11,12,12a,12b,13,14b-octadecahydropicene-4a(2H)-carboxylate]",18.9 ± 0.35 µM,> 30 µM,18.4 ± 3.76 µM,170.3 °C,16.8 ± 9.25 µM,15 ± 0.35 µM,,,,,
"Cc1nccnc1COC(=O)[C@]12CCC(C)(C)CC1C1=CCC3[C@@]4(C)CC[C@H](O)[C@@](C)(CO)C4CC[C@@]3(C)[C@]1(C)CC2 (stereo partly drawn) [Compound 4, (3-Methylpyrazin-2-yl)methyl(4aS,6aS,6bR,9R,10S,12aR)-10-hydroxy-9-(hydroxymethyl)-2,2,6a,6b,9,12a-hexamethyl-1,3,4,5,6,6a,6b,7,8,8a,9,10,11,12,12a,12b,13,14b-octadecahydropicene-4a(2H)-carboxylate]",25.5 ± 1.4 µM,20.4 ± 2.24 µM,26.1 ± 1.02 µM,170.4 °C,17.3 ± 0.48 µM,17.1 ± 1.06 µM,,,,,
"Cc1ncc(COC(=O)[C@]23CCC(C)(C)CC2C2=CCC4[C@@]5(C)CC[C@H](O)[C@@](C)(CO)C5CC[C@@]4(C)[C@]2(C)CC3)nc1C (stereo partly drawn) [Compound 5, (5,6-Dimethylpyrazin-2-yl)methyl(4aS,6aS,6bR,9R,10S,12aR)-10-hydroxy-9-(hydroxymethyl)-2,2,6a,6b,9,12a-hexamethyl-1,3,4,5,6,6a,6b,7,8,8a,9,10,11,12,12a,12b,13,14b-octadecahydropicene-4a(2H)-carboxylate]",24.94 ± 0.06 µM,28.5 ± 0.29 µM,23.5 ± 0.67 µM,> 200 °C,> 30 µM,24.4 ± 0.37 µM,,,,,
"Cc1nc(C)c(COC(=O)[C@]23CCC(C)(C)CC2C2=CCC4[C@@]5(C)CC[C@H](O)[C@@](C)(CO)C5CC[C@@]4(C)[C@]2(C)CC3)nc1C (stereo partly drawn) [Compound 6, (3,5,6-Trimethylpyrazin-2-yl)methyl(4aS,6aS,6bR,9R,10S,12aR)-10-hydroxy-9-(hydroxymethyl)-2,2,6a,6b,9,12a-hexamethyl-1,3,4,5,6,6a,6b,7,8,8a,9,10,11,12,12a,12b,13,14b-octadecahydropicene-4a(2H)-carboxylate]",> 30 µM,> 30 µM,24.1 ± 0.76 µM,127.8 °C,> 30 µM,25.5 ± 0.26 µM,,,,,
"CC1(C)CC[C@]2(C(=O)OCCO)CC[C@]3(C)C(=CCC4[C@@]5(C)CC[C@H](O)[C@@](C)(CO)C5CC[C@]43C)C2C1 (stereo partly drawn) [Compound 7, 2-Hydroxyethyl (4aS,6aS,6bR,9R,10S,12aR)-10-hydroxy-9-(hydroxymethyl)-2,2,6a,6b,9,12a-hexamethyl-1,3,4,5,6,6a,6b,7,8,8a,9,10,11,12,12a,12b,13,14b-octadecahydropicene-4a(2H)-carboxylate]",> 30 µM,> 30 µM,> 30 µM,246.6 °C,> 30 µM,> 30 µM,,,,,
"CC1(C)CC[C@]2(C(=O)OCCOC(=O)c3cnccn3)CC[C@]3(C)C(=CCC4[C@@]5(C)CC[C@H](O)[C@@](C)(CO)C5CC[C@]43C)C2C1 (stereo partly drawn) [Compound 8, 2-(((4aS,6aS,6bR,9R,10S,12aR)-10-Hydroxy-9-(hydroxymethyl)-2,2,6a,6b,9,12a-hexamethyl-1,2,3,4,4a,5,6,6a,6b,7,8,8a,9,10,11,12,12a,12b,13,14b-icosahydropicene-4a-carbonyl)oxy)ethylpyrazine-2-carboxylate]",17.4 ± 0.75 µM,21.7 ± 0.86 µM,20.1 ± 0.3 µM,154.7 °C,25.35 ± 0.09 µM,23.9 ± 0.31 µM,,,,,
"Cc1cnc(C(=O)OCCOC(=O)[C@]23CCC(C)(C)CC2C2=CCC4[C@@]5(C)CC[C@H](O)[C@@](C)(CO)C5CC[C@@]4(C)[C@]2(C)CC3)cn1 (stereo partly drawn) [Compound 10, 2-(((4aS,6aS,6bR,9R,10S,12aR)-10-Hydroxy-9-(hydroxymethyl)-2,2,6a,6b,9,12a-hexamethyl-1,2,3,4,4a,5,6,6a,6b,7,8,8a,9,10,11,12,12a,12b,13,14b-icosahydropicene-4a-carbonyl)oxy)ethyl-5-methylpyrazine-2-carboxylate]",28.17 ± 0.21 µM,19.6 ± 3.29 µM,25.4 ± 0.28 µM,192.6 °C,27.2 ± 2.09 µM,20.9 ± 0.68 µM,,,,,
"Cc1nccnc1C(=O)OCCOC(=O)[C@]12CCC(C)(C)CC1C1=CCC3[C@@]4(C)CC[C@H](O)[C@@](C)(CO)C4CC[C@@]3(C)[C@]1(C)CC2 (stereo partly drawn) [Compound 11, 2-(((4aS,6aS,6bR,9R,10S,12aR)-10-Hydroxy-9-(hydroxymethyl)-2,2,6a,6b,9,12a-hexamethyl-1,2,3,4,4a,5,6,6a,6b,7,8,8a,9,10,11,12,12a,12b,13,14b-icosahydropicene-4a-carbonyl)oxy)ethyl-3-methylpyrazine-2-carboxylate]",14.84 ± 0.03 µM,14.7 ± 0.16 µM,18.64 ± 0.18 µM,146.8 °C,27.3 ± 0.57 µM,14.12 ± 0.01 µM,,,,,
CC1(C)CC[C@]2(C(=O)OCCCCCl)CC[C@]3(C)C(=CCC4[C@@]5(C)CC[C@H](O)[C@@](C)(CO)C5CC[C@]43C)C2C1 (stereo partly drawn) [Compound 20],> 30 µM,> 30 µM,> 30 µM,,> 30 µM,> 30 µM,,,,,
"N.N.[Cl][Pt][Cl] [DDP, cisplatin, reference compound]",,,,,,,3.42 ± 0.68 µM,5.31 ± 0.26 µM,9.97 ± 1.12 µM,5.17 ± 0.28 µM,3.85 ± 0.63 µM
"CC1(C)CC[C@]2(C(=O)O)CC[C@]3(C)C(=CC[C@@H]4[C@@]5(C)CC[C@H](O)[C@@](C)(CO)[C@@H]5CC[C@]43C)[C@@H]2C1 [He, Hederagenin]",> 50 µM,> 50 µM,> 50 µM,,> 50 µM,> 50 µM,,,,,
